Measured values: patent US10428101B2, “Preparation of glycosphingosines” (The Regents of the University of California, priority 2013, dated 2019)
Marks after values point to notes of the source that are not given here.

Experiments:
[1] = biological target: Pasteurella multocida α2-3-sialyltransferase 1 E271F/R313Y mutant (PmST1 E271F/R313Y) (Pasteurella multocida, UniProt Q15KI8, E271F/R313Y); details: for Conversion (%): acceptor lactoside to Neu5Acα2-3 product, OPME sialylation pH 8.5, assayed at 4 h, TLC and ImageQuant 5.2
Sequence of Pasteurella multocida α2-3-sialyltransferase 1 E271F/R313Y mutant (PmST1 E271F/R313Y) (Q15KI8 26-412 E271F/R313Y): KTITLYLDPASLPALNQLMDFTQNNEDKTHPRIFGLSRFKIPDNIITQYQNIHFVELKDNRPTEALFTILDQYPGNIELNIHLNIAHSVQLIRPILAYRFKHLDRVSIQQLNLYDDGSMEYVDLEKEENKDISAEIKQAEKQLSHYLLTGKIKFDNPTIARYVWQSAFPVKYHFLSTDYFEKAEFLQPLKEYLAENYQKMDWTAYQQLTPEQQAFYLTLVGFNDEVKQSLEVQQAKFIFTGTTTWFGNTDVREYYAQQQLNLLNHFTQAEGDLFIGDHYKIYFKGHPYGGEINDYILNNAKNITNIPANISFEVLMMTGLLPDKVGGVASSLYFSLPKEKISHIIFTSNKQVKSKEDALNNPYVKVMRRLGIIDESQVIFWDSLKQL
Text: To test the suitability of lactoside 1 as an acceptor sugar, a one-pot two-enzyme system containing PmST1 E271F/R313Y and Neisseria meningitidis CMP-sialic acid synthetase (NmCSS) (Scheme 2) was used.
To increase the solubility of the fluorous-tagged lactosides and to examine how the length of the fluorous tags affects the efficiency of the enzymatic reactions, fluorous-tagged lactosides (2-4) (Scheme 1) containing a propylamide linker and different lengths of fluoroalkyl chains were synthesized and used as the acceptor sugars in a one-pot two-enzyme system containing NmCSS and PmST1 E271F/R313Y (Scheme 3).
The reactions were monitored by TLC (EtOAc:MeOH:H2O:AcOH=5:2:1:0.1).

[2] = biological target: Photobacterium damselae α2-6-sialyltransferse (Pd2,6ST) (Photobacterium damselae, UniProt O66375); assay: One-pot two-enzyme α2-6-sialylation of fluorous-tagged lactoside acceptors (NmCSS + Pd2,6ST), conversion by TLC/ImageQuant; assay type: biochemical; details: acceptor lactoside to Neu5Acα2-6 product; OPME sialylation pH 8.5; assayed at 4 h; TLC and ImageQuant 5.2
Sequence of Photobacterium damselae α2-6-sialyltransferse (Pd2,6ST) (O66375 entry or part of it): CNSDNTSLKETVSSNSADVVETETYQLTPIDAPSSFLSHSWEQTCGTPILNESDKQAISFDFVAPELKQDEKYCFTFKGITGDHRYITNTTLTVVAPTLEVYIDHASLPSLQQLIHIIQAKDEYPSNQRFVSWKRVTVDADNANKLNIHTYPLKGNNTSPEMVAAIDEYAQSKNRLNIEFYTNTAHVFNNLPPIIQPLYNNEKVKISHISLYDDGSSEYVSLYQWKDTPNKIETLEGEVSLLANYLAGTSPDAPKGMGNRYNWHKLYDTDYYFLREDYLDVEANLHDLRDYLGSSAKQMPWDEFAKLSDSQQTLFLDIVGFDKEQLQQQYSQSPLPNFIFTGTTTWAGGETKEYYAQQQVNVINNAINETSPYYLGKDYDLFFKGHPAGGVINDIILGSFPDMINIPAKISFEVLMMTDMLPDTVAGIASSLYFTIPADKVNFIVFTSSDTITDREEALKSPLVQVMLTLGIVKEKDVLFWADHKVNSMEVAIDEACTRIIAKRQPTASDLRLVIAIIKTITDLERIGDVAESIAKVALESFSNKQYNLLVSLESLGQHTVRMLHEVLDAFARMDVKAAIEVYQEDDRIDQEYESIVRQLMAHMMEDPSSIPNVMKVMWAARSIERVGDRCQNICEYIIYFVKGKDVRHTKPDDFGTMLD
Experimental: B: One-pot two-enzyme sialylation reaction with Pd2,6ST.
Reaction conversion rates were determined by staining the TLC plates with p-anisaldehyde sugar stain and then using ImageQuant 5.2 software to compare the relative intensities between the glycosylation product spot and the lactoside acceptor spot of each reaction (FIG. 1). For external standard comparison, each lactoside acceptor spot was also compared with its corresponding standard 10 mM stock solution spot to verify the conversion rates of each reaction.
Pd2,6ST (0.72 μg) was added to a 0.5 mL centrifuge tube containing 0.01μmol (1 eq.) of a lactoside acceptor (chosen from 1-8), Neu5Ac (1.2 eq.), CTP (2 eq.), Tris-HCl buffer (100 mM, pH 8.5), MgCl2 (20 mM), NmCSS (0.08 μg), and water (total volume=10 μL). The reactions were monitored by TLC (EtOAc:MeOH:H2O:AcOH=5:2:1:0.1).

[3] = Water solubility of fluorous-tagged lactoside; assay type: physicochemical; details: qualitative statement

| Substance | Conversion (%) [1] | Conversion (%) [2] | sialylated product detected (trace amount) ([1]; one-pot two-enzyme system PmST1 E271F/R313Y and NmCSS, by TLC and MALDI-TOF) | water solubility [3] |
| --- | --- | --- | --- | --- |
| LacβProNH-C8F17 [Compound 2] | 22 ± 12^[b] % | 31 ± 18^[b] % | – | – |
| LacβProNH-TEG-C8F17 [Compound 5] | 65 ± 11^[b] % | 47 ± 10^[b] % | – | – |
| LacβC8F17 [Compound 1] | – | – | < 10% | low |
| LacβProNH—C6F13 [Compound 3] | 92 ± 5.5^[b] % | 94 ± 6.0^[b] % | – | – |
| LacβProNH-TEG-C6F13 [Compound 7] | 70 ± 4.8^[b] % | 65 ± 7.9^[b] % | – | – |
| LacβProNH-HEG-C6F13 [Compound 8] | 80 ± 15^[b] % | 66 ± 25^[b] % | – | – |
| LacβProNH-HEG-C8F17 [Compound 6] | 55 ± 7.8^[b] % | 52 ± 5.6^[b] % | – | – |
| LacβProNH—C3F7 [Compound 4] | 89 ± 9.8^[b] % | qt.^[b] | – | – |
